Data reported in US9187458B2, “Cyanoquinoline derivatives” (Tianjin Hemay Bio-Tech Co., LTD., priority 2010, dated 2015).
Structures can show the parent of a compound that is named as a salt.

Tests used:
A431 cells = experiment: A431 Cell Growth Inhibition Test (MTT Assay); type: cell-based, human; conditions: Homo sapiens, A-431, 68 h, compound 1 μM, 68 h incubation, read-out: Growth Inhibition Ratio (%)
Procedure: A431 Cell Growth Inhibition Test (MTT Assay)
1. Cell strains: A431 (human epithelial […] cell strains);
Culture medium: 45% DMEM, 45% F12+10% FBS;
(§1) 1. A plate (10 cm) of cells in logarithmic growth phase normally cultured was collected;
(§2) 2. The culture solution was sucked out. The plate was washed with 5 ml of PBS 1-2 times;
3. PBS was sucked out, and 2 ml of 0.25% pancreatin was added to infiltrate the cells for 1 min;
4. The pancreatin was sucked out, and the culture plate was placed in an incubator. Digestion was carried out for about 15 min at 37° C.;
(§3) 5. 4 ml of complete culture solution was added in the culture plate to stop the digestion. The cells were carefully scoured with micropipette (1 ml) to give a uniform cell suspension. The suspension was implanted into a 96-well cell culture plate by 2500 cells/100 μl per well. The culture plate was incubated overnight under 5% CO2 at 37° C. In day 2, 100 μl of culture solution comprising the compound was added in each well, and further incubated for 68 h under 5% CO2 at 37° C.
(§4) 6. The culture solution was sucked out;
7. 100 μl of serum-free culture solution containing 0.5 mg/ml MTT was added in each well, and incubated for 4 h;
(§5) 8. The culture solution was carefully sucked out;
9. 100 μl of DMSO was added into each well and vibrated to dissolve;
(§6) 10. OD values were determined at 490 nM.
(§7) 1. Calculation of Relative Inhibition Ratio The inhibition ratio of a compound on cell growth=(PC−n)/(PC−NC)×100%
IC50: concentration of a compound where inhibition ratio was 50%. IC50 values were fitted with Origin7.5.

NCI-H1650 cells = experiment: NCI-H1650 Cell Growth Inhibition Test (SRB Assay); type: cell-based; conditions: Homo sapiens, 72 h incubation
Procedure: NCI-H1650 Cell Growth Inhibition Test (SRB Assay)
1. Cell strains: NCI-H1650 (human non-small cell lung cancer cell strains);
2. SRB, 0.4% (w/v) working solution was formulated with 1% glacial acetic acid and reserved at 4° C.; antitumor compounds; DMSO
as §1
2. The culture solution was sucked out. The plate was washed with 5 mL of PBS 1-2 times;
3. 1.5 mL of 0.25% pancreatin was added to the plate to infiltrate the cells;
4. The pancreatin was sucked out. The culture plate was placed in an incubator. Digestion was carried out for about 3 min at 37° C.;
5. 4 mL of complete culture solution was added to the culture plate to stop the digestion. The cells were carefully scoured with micropipette (1 ml) to give a uniform single cell suspension. The suspensin was implanted into a 96-well cell culture plate by 6000 cells/100 μl per well. The culture plate was incubated overnight under 5% CO2 at 37° C. In day 2, 100 μl of culture solution comprising a compound was added in each well, and further incubated for 72 h under 5% CO2 at 37° C.;
(§8) 6. The culture solution was sucked out. 100 uL of TCA fixed cells which were diluted to 10% were added to each well. The plate was kept in a refrigerator for 1 h at 4° C.
(§9) 7. TCA stationary liquid was sucked out. Each well was washed with 150 μL of ddH2O five times;
(§10) 8. After the stationary liquid was cleansed, the plate was dried in the air at the room temperature;
(§11) 9. 60 μL of SRB staining solution was added in each well. The well was stained for 15 min at the room temperature;
(§12) 10. The SRB staining solution was sucked out. Each well was washed with 150 μL of 1% glacial acetic acid five times;
(§13) 11. After the SRB staining solution was cleansed, the plate was dried in the air at the room temperature;
12. 100 μL of 10 mM Tris was added in each well, the plate was vibrated to dissolve out SRB;
(§14) 13. OD values were determined at 570 nM.
as §7
(§15) IC50: Concentration of a compound where inhibition ratio was 50%. IC50 values were fitted with Origin7.5.

NCI-H460 cells = experiment: NCI-H460 Cell Growth Inhibition Test (MTT Assay); type: cell-based; conditions: Homo sapiens, 72 h incubation
Procedure: NCI-H460 Cell Growth Inhibition Test (MTT Assay)
1. Cell strains: NCI-H460 (human large cell lung cancer cell strains);
as §1, §2
3. PBS was sucked out. 2 ml of 0.25% pancreatin was added to infiltrate the cells for 1 min;
4. The pancreatin was sucked out. The culture plate was placed in an incubator. Digestion was carried out for about 2 min at 37° C.;
as §3, with “was added to the culture” for “was added in the culture”, “solution comprising a compound was” for “solution comprising the compound was”, “incubated for 72 h under” for “incubated for 68 h under”
as §4
(§16) 7. 100 μl of serum-free culture solution containing 0.5 mg/ml MTT was added in each well, and incubated for 3 h;
as §5
9. 100 μl of DMSO was added in each well and vibrated to dissolve;
as §6, §7, §15

EGFR-TK = biological target: T1, EGFR-TK (Homo sapiens, UniProt P00533); experiment: Inhibition Test on EGFR-TK (ELISA, PGT substrate); type: biochemical; conditions: 20 min at room temperature, read-out: Inhibition Activity (EC50) on EGFR-TK phosphorylation
T1 construct: EGFR-TK: intracellular epidermal growth factor receptor phosphorylase
T1 sequence (P00533 669-1210 limits assumed): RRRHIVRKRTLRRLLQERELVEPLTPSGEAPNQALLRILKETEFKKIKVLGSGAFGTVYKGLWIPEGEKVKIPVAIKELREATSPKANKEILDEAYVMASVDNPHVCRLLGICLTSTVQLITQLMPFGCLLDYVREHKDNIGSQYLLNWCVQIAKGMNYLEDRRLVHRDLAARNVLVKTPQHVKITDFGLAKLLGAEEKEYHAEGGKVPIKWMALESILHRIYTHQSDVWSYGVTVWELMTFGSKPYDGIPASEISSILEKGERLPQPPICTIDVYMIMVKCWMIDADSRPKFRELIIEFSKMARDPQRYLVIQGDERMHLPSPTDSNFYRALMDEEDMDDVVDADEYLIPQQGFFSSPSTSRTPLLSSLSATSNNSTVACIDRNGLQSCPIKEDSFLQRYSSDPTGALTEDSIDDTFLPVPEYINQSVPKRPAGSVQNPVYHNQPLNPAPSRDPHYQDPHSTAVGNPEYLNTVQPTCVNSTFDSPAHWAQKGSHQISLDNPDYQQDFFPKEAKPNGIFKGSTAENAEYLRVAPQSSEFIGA
Procedure: Inhibition Test on EGFR-TK
1. 2 mg/ml of PGT was diluted with PBS to 0.2 mg/ml. The resulting solution was added into elisa plate by 50 μl per well. The plate was placed in a refrigerator at 4° C. and coated overnight.
2. The coating solution was discarded to stop coating. The plate was washed three times with PBS, and then beaten to dryness.
3. The elisa plate was placed in a refrigerator at 4° C., drained out and stood for 2h.
4. The mother liquid of aqueous solution of each compound was diluted with double distilled water to four folds, i.e. a desirable concentration. Then, the compound was diluted and added in the corresponding elisa well by 25 μl/well.
5. […] of ATP solution was diluted with double distilled water to 50 folds and then sufficiently mixed. The resulting solution was separately added in each elisa well by 25 μl per well (except for the negative control).
6. EGFR kinase was diluted with 2×TKB to 800 folds. The solution was added in elisa well with 50 μl per well. Then, the enzyme reaction began. The elisa plate was immediately placed on a micro-oscillator and shaked to react for 20 min at the room temperature.
7. 2% of SDS was added in the elisa well to stop the reaction by adding 100 μl of SDS into each well. The solution was sufficiently mixed on the micro-oscillator to sufficiently mix for about 5 min.
8. The reaction solution was sucked out. The plate was washed four times with PBST. After the plate was beaten to dryness, 0.25 μg/ml of mice anti-phosphorylation tyrosine-HRP antibody which was diluted with blocking solution (3% solution of BSA in PBST) was added in the plate by 100 μl per well. The mixture was reacted for 30 min at the room temperature.
9. The antibody reaction solution was sucked out. The plate was washed four times with PBST. After the plate was beated to dryness, TMB peroxidase substrate was added to the plate by 100 μl/well. The mixture reacted in the dark for 15 min at the room temperature.
10. 100 μl of 2N H2SO4 was added in the plate to stop the chromogenic reaction. After the bubbles were cleansed, OD values were determined in ELIASA at 450 nm.
11. Formula for calculating inhibition percentage: […]

BT-474 cells = experiment: BT-474 Cell Growth Inhibition Test (SRB Assay); type: cell-based, human; conditions: Homo sapiens, BT-474, 70 h, compound 1 μM, 70 h incubation, read-out: Growth Inhibition Ratio (%)
Procedure: BT-474 Cell Growth Inhibition Test (SRB Assay)
1. Cell strains: BT-474 (human breast tumor cell strains);
2. SRB: available from Sigmaaldrich, goods number: S9012, lot number: 047K3751. SRB was reserved at the room temperature. 0.4% (w/v) of working solution was formulated with 1% of glacial acetic acid. The solution was reserved at the temperature of 4° C.; anti-tumor compounds; DMSO.
Culture medium (90% EMEM+10% FBS+0.1 mM NEAA, reserved at 4° C.);
1. A plate (10 cm) of cells in logarithmic growth phase normally cultured was collected. The culture solution was sucked out. The plate was washed with 5 mL of PBS 1-2 times;
2. PBS was sucked out, and […] of 0.25% pancreatin was added to infiltrate the cells for 30 s;
3. The pancreatin was sucked out. The culture plate was pleaced in an incubator. Digestion was carried out for about 5 min at 37° C.;
4. 3 mL of complete culture solution was added to the culture plate to stop the digestion. The cells were carefully scoured with micropipette (1 ml) to give a uniform single cell suspension;
5. Cell suspension was counted. The suspension was diluted to 1×10^5/ml. The resulting suspension was developed uniformly on a plate. The plate was incubated under 5% CO2 at 37° C. overnight. In day 2, 80 μL of complete culture medium was added in each well and then 20 μL of culture solution comprising a compound was added. The mixture was incubated for 70 h under 5% CO2 at 37° C.
as §8, §9, §10, §11, §12, §13
12. 100 μL of 10 mM Tris was added in each well. The plate was vibrated to dissolve out SRB;
as §14, §7, §15

CCRF-CEM/T cells = experiment: CCRF-CEM/T Cell Growth Inhibition Test (MTT Assay); type: cell-based; conditions: Homo sapiens, CCRF-CEM/T cells (resistant to paclitaxel), 72 h incubation
Procedure: CCRF-CEM/T Cell Growth Inhibition Test (MTT Assay)
Cell strains: CCRF-CEM/T (human acute lymphocytic cell leukemia cells);
triple lysate solution: 10% SDS, 5% isobutanol, 0.012M HCl.
1. Cells were cultured to exponential phase. The cells were suspension cells;
2. The cells were collected by centrifuge. The resulting cells were resuspended in a complete culture medium to a desired concentration. The cells suspension was implanted into a 96-well cell culture plate by 20000 cells per well. A compound was added in the wellsuch that the final volume of the system was 120 μl. The system was further incubated for 72 h under 5% CO2 at 37° C.
7. 30 μl of serum-free culture solution containing 2.5 mg/ml MTT was added in each well, and incubated for 3 h;
8. 150 μl of triple lysate solution was added in each well and placed to dissolve at the room temperature;
9. OD values were determined at 570 nM.
as §7, §15

Fadu cells = experiment: Fadu Cell Growth Inhibition Test (MTT Assay); type: cell-based; conditions: Homo sapiens, 72 h incubation
Procedure: Fadu Cell Growth Inhibition Test (MTT Assay)
Cell strains: Fudu (human head and neck cancer cell strains);
Culture medium: 90% EMEM+10% FBS;
as §1, §2
(§17) 3. PBS was sucked out. 1.5 ml of 0.25% pancreatin was added to infiltrate the cells for 1 min;
4. The pancreatin was sucked out. The culture plate was placed in an incubator. Digestion was carried out for about 5 min at 37° C.;
(§18) 5. 4.5 ml of complete culture solution was added to the culture plate to stop the digestion. The cells were carefully scoured with micropipette (1 ml) to give a uniform cell suspension. The suspension was implanted into a 96-well cell culture plate by 6000 cells/100 μl per well. The culture plate was incubated overnight under 5% CO2 at 37° C. In day 2, 100 μl of culture solution comprising a compound was added in each well, and further incubated for 72 h under 5% CO2 at 37° C.
as §4, §16, §5
(§19) 9. 100 μl of DMSO was added in each welland vibrated to dissolve;
as §6, §7, §15

AsPC-1 cells = experiment: AsPC-1 Cell Growth Inhibition Test (MTT Assay); type: cell-based; conditions: Homo sapiens, ASPC1, 72 h incubation
Procedure: AsPC-1 Cell Growth Inhibition Test (MTT Assay)
Cell strains: AsPC-1 (human pancreatic cancer cell strains);
as §1, §2, §17
4. The pancreatin was sucked out. The culture plate was placed in an incubator. Digestion was carried out for about 7.5 min at 37° C.;
as §18, with “8000” for “6000”
as §4, §16, §5, §19, §6, §7, §15

| IC50 (NCI-H1650 cells) [nM] | IC50 (NCI-H460 cells) [nM] | EC50 (EGFR-TK) [nM] | IC50 (CCRF-CEM/T cells) [nM] | IC50 (AsPC-1 cells) [nM] | SMILES | inhibition at 1 µM (A431 cells) [%] | inhibition at 1 µM (BT-474 cells) [%] | IC50 (Fadu cells) [nM] |
| --- | --- | --- | --- | --- | --- | --- | --- | --- |
| 819 | – | – | – | – | CN(C)C/C=C/C(=O)Nc1cc2c(Nc3ccc(OCc4ccccn4)c(Cl)c3)c(C#N)cnc2cc1OC1CCOC1 (stereo not shown) [Example 3, (E)-N-(4-(3-CHLORO-4-(PYRIDIN-2-YL-METHOXY)PHENYLAMINO)-3-CYANO-7-(TETRAHYDROFURAN-3-YL-OXY)QUINOLIN-6-YL)-4-(DIMETHYLAMINO)-BUT-2-ENAMIDE HYDROCHLORIDE] | 85 | – | – |
| – | 4000 | 25 | – | – | N#Cc1cnc2cc(OC3CCOC3)c(NC(=O)C=C3CCNCC3)cc2c1Nc1ccc(OCc2cccc(F)c2)c(Cl)c1 (stereo not shown) [Example 46, N-(4-(4-(3-FLUOROBENZYLOXY)-3-CHLOROPHENYLAMINO)-3-CYANO-7-(TETRAHYDROFURAN-3-YL-OXY)QUINOLIN-6-YL)-2-(PIPERIDIN-4-YLIDENE)ACETAMIDE] | – | – | – |
| 760 | – | – | 1100 | 440 | CN(C)C/C=C/C(=O)Nc1cc2c(Nc3ccc(OCc4cccc(F)c4)c(Cl)c3)c(C#N)cnc2cc1O[C@H]1CCOC1 [Example 158, (S,E)-N-(4-(4-(3-FLUOROBENZYLOXY)-3-CHLOROPHENYLAMINO)-3-CYANO-7-(TETRAHYDROFURAN-3-YL-OXY)QUINOLIN-6-YL)-4-(DIMETHYLAMINO)-BUT-2-ENAMIDE] | 77 | 82 | 119 |
